Reference: patent US8722626B2, “Method for controlling fibrosis and other pathological deposits in tissues comprising administering a GHRP-6 composition” (Centro de Ingenieria Genetica y Biotecnologia, priority 2006, dated 2014)
Marks after values point to notes of the source that are not given here.

Legend:
[1] = system: renal fibrosis in rats (Doxorubicin); test: Reverting renal fibrosis induced by Doxorubicin in rats (Example 3); type: in vivo, rat; conditions: for GOT serum level (integrity of the hepatic parenchyma) / GPT serum level (integrity of the hepatic parenchyma) / OH—P Content (hydroxiproline) in kidneys / Grado 0 (null) fibrosis in kidneys, numbers of animals per group / Grado 1 (moderate) fibrosis in kidneys, numbers of animals per group / Grado 2 (intense) fibrosis in kidneys, numbers of animals per group / Grado 3 (very intense) fibrosis in kidneys, numbers of animals per group: 4 weeks; for GOT serum level (integrity of the hepatic parenchyma) / GPT serum level (integrity of the hepatic parenchyma) / OH—P Content (hydroxiproline) in kidneys: end of treatment; for OH—P Content (hydroxiproline) in kidneys: 20 fragments per group; for Grado 0 (null) fibrosis in kidneys, numbers of animals per group / Grado 1 (moderate) fibrosis in kidneys, numbers of animals per group / Grado 2 (intense) fibrosis in kidneys, numbers of animals per group / Grado 3 (very intense) fibrosis in kidneys, numbers of animals per group: N = 20; for Catalase (oxidative stress marker) / HPT (oxidative stress marker) / MDA (oxidative stress marker) / SODt (oxidative stress marker): renal tissue samples, end of the fourth week of treatment
Procedure: This experiment was conducted to evaluate the effect of the pharmaceutical composition containing GHRP-6 in reverting renal fibrosis in rats. In this case, the process was induced by sustained administration of the anti-neoplasic agent Doxorubicin (DX) at a 2.5 mg/kg dosage twice a week during 8 weeks. […] This point forward, DX administration was interrupted and the treatment with the pharmaceutical composition containing the GHRP-6 was started. The treatment was applied once daily at 100 and 400 μg/kg in a volume of 1 ml by the intraperitoneal route, during 4 weeks. The animals remaining were randomly distributed into three experimental groups of 20 rats each: (1) Control placebo group, receiving physiological saline solution, (2) Group receiving the GHRP-6 at a 100 μg/kg dosage, and (3) Group receiving the GHRP-6 at a 400 μg/kg dosage. When treatments concluded, the animals were sacrificed by anesthesia overdose and livers, kidneys, lungs and blood sera were collected. Tissue fragments were fixed in formalin neutral and processed by hematoxylin/eosin staining, or by Masson's trichromic staining, to evaluate the general damage and the severity of fibrotic indurations. Other fragments were stored at −70° C. until processing to determine the content of hydroxiproline by acid hydrolysis in 1N HCl, and also the levels of creatinine and oxidative stress markers. Biochemical determinations were carried out by calculating the total protein content by the Bradford's method.

[2] = system: transgenic mice over-expressing one mutated form of the NOTCH 3 gene; test: Dementia of vascular origin: transgenic mice over-expressing mutated NOTCH 3 gene (CADASIL model, Example 6); type: in vivo, mouse; set-up: SODt (oxidative stress marker) / Cabalase (oxidative stress marker) / HPT (oxidative stress marker) / MDA (oxidative stress marker): unit not given here; conditions: 100 μg/kg i.p. twice a week, 16 weeks
Procedure: This experiment was conducted to evaluate the efficacy of pharmaceutical compositions indistinctly containing one of the peptides GHRP-6, GHRP-2, hexarelin or ghrelin on the central neurofunctional involution process in transgenic mice over-expressing one mutated form of the NOTCH 3 gene in blood vessel smooth muscle cells. These animals develop in terms of months an arteriopathy similar to that of the CASADIL disease, referred to the descriptive memory, and is occurring as one of the main causes of vascular dementia. In these animals, vascular lesions also include retinal-cerebral, cerebral and cochlear vasculopathies. The beta-amiloid material present in the brain and blood vessels, the deposit of osmophilic granular material in brain and meningeal artery walls and their reduced lumen are histopathologically relevant. White-pale zones, microinfarction and hemorrhagic foci zones appear in the brain and its main nervous trunks.
Eighteen- to twenty-months-old male mice were employed when evidenced the symptoms of the disease. The animals were randomly assigned to the following experimental treatment groups: • A—Placebo group receiving the physiological saline solution. • B—Group receiving GHRP-6 at a 100 μg/kg dosage. • C—Group receiving GHRP-2 at a 100 μg/kg dosage. • D—Group receiving Ghrelin at a 100 μg/kg dosage. • E—Group receiving Hexarelin at a 100 μg/kg dosage.
Treatments were applied twice a week during 16 weeks by intraperitoneal route. When treatments concluded, autopsy studies were conducted irrespective of the clinical improvement evidenced in a great number of animals treated. Brain tissue samples including meningeal tissues were collected for biochemical and histopathological determinations. The animals received anesthesia overdosed and subjected to intra-cardiac perfusion with cold physiological saline solution to wash off the blood present in the encephala. The encephala were extracted and one encephalon was frozen in dry-ice and the other was fixed in 4% para-formaldehyde neutral. Samples were cryo-sliced at 10 μm and slices were stained with hematoxylin/eosin, Congo Red, or incubated with an antibody specific for the beta-amiloid protein. Morphometric procedures were carried out by microscopic imaging capture by a camera connected to the microscope, and the images were analyzed with the DIGIPAT software.
Number of fibrillar deposits of beta-amiloid in blood vessels.
Number of sub-cortical infarctions.
Number of sub-cortical hemorrhages.
Brain concentration of myo-inositol as indicator of aging and brain metabolism deterioration (μmol/g of tissue).
Brain oxidative stress markers.

[3] = system: human keloid fragments xeno-transplanted in athymic mice; test: Human keloid fragments xeno-transplanted into athymic mice (Example 7); type: in vivo, mouse
Excerpt: To study the effect of peptides GHRP-6, GHRP-2, Hexarelin and/or Ghrelin in eradicating the pathological deposits of physiological material in the skin, human keloid fragments were xeno-transplanted into the dorsal region in athymic mice. After 72 hrs of evolution, to corroborate grafting and viability of xeno-transplants, the animals (N=6) were randomly distributed into the following experimental groups: • A—Saline control group (vehicle of the active principles). • B—Group receiving GHRP-6. • C—Group receiving GHRP-2. • D—Group receiving Ghrelin. • E—Group receiving Hexarelin. • Treatments were applied once every 24 hrs during 7 days. The substances were infiltrated at the edges in the implants, for local bioavailability of the active principles, at dosages from 5 micrograms to 1 milligram. After the treatment period, the animals were sacrificed and the implants extracted to evaluate the pharmacological response to every substance. Samples were weighed and fragmented for histological studies and biochemical determinations of collagen. The fragments for histological studies were fixed in 10% formalin neutral, and those fragments for biochemical analyses were stored at −70° C. • The parameters studied were: • a—Wet weight of the graft collected. • b—Hydroxiproline content in the tissue. • c—Number of microscopic fields with tissue positive to Picrosirius red staining and trichromic Masson's staining.

[4] = Dosage I: 100 μg/kg i.p. once daily
[5] = Dosage II: 400 μg/kg i.p. once daily
[6] = Dosis I: 100 μg/kg i.p. once daily
[7] = Dosis II: 400 μg/kg i.p. once daily
[8] = infiltrated at the edges in the implants once every 24 hrs during 7 days, 5 micrograms to 1 milligram

## GHRP-6
[1]; [4]
  GOT serum level (integrity of the hepatic parenchyma): 64.82 ± 23.71 IU/l
  GPT serum level (integrity of the hepatic parenchyma): 81.0 ± 10.25 IU/l
  OH—P Content (hydroxiproline) in kidneys: 46.15 ± 2.73 μg/g of total proteins
[1]; [5]
  GOT serum level (integrity of the hepatic parenchyma): 26.22 ± 4.1 IU/l
  GPT serum level (integrity of the hepatic parenchyma): 28.25 ± 5.66 IU/l
  OH—P Content (hydroxiproline) in kidneys: 8.66 ± 1.02 μg/g of total proteins
[1]; [6]
  Grado 0 (null) fibrosis in kidneys, numbers of animals per group: 6
  Grado 1 (moderate) fibrosis in kidneys, numbers of animals per group: 9
  Grado 2 (intense) fibrosis in kidneys, numbers of animals per group: 5
  Grado 3 (very intense) fibrosis in kidneys, numbers of animals per group: 0
[1]; [7]
  Grado 0 (null) fibrosis in kidneys, numbers of animals per group: 5
  Grado 1 (moderate) fibrosis in kidneys, numbers of animals per group: 15*
  Grado 2 (intense) fibrosis in kidneys, numbers of animals per group: 0
  Grado 3 (very intense) fibrosis in kidneys, numbers of animals per group: 0
[1]; FIGURE, 100 and 400 μg/kg vs. placebo, highest difference at 400 μg/kg
  Percent of animals with renal fibrosis compromise per group at the end of the treatment: dosage-dependent effect
[1]; Dosage I: 100 μg/kg
  Catalase (oxidative stress marker): 126.02 ± 12.23
  HPT (oxidative stress marker): 73.2 ± 6.92
  MDA (oxidative stress marker): 0.56 ± 2.23
  SODt (oxidative stress marker): 665.08 ± 28.42
[1]; Dosage II: 400 μg/kg
  Catalase (oxidative stress marker): 45.38 ± 8.27
  HPT (oxidative stress marker): 16.14 ± 3.67
  MDA (oxidative stress marker): 0.087 ± 0.02
  SODt (oxidative stress marker): 1287.64 ± 112.63
[2]; brain
  Cabalase (oxidative stress marker): 51.5 ± 16.01
  Cerebral Myo-inositol: 12.36 ± 5.64 μmol/g of tissue
  HPT (oxidative stress marker): 101.7 ± 22.09
  MDA (oxidative stress marker): 0.23 ± 0.05
  SODt (oxidative stress marker): 12327.31 ± 55.1
[2]; cerebral tissues
  No. of blood vessels positive to Congo Red: 16.31 ± 5.33
  No. of blood vessels positive to Nissl: 14.22 ± 8.15
  No. of hemorrhagic foci.: 19.05 ± 5.14
  No. of subcortical infarctions.: 26.79 ± 4.19
[3]; Picrosirius red and trichromic Masson's staining, 4× and 10× averaged, infiltrated once every 24 hrs during 7 days
  No. of fields positive to collagen-specific staining: 11.45
[3]; aniline blue staining, infiltrated once every 24 hrs during 7 days
  No. of microscopic fields with mast cells (20X magnif.): 9.54 ± 2.15
[3]; [8]
  Hydroxiproline content in the tissue: 88.27 ± 4.61 µg/g
  Wet weight of the graft collected: 6.71 ± 1.18 a grams
